Measurements reported in patent EP2573088A1, “Pyrano[3,2-c]benzopyran-6(2h)-one derivatives and uses thereof” (Prous Institute for Biomedical Research, S.A., priority 2011, dated 2013).

Columns and labels:
fed mice = test: Blood glucose after i.p. glucose challenge, fed mice; format: in vivo
Method: (§1) Male C57BL/6 mice weighing 25 ± 3 g were provided by Harlan. Space allocation for five animals was 29 x 18 x 13 cm. All animals were maintained in a controlled temperature (21-23 °C) and humidity (50-70%) environment on a 12-hour light/dark cycle for 7 days in the animal facilities. Free access to standard chow for mice and reverse osmosis water were given. All aspects of this work, including housing, experimentation and disposal of animals, were performed in general accordance with the Guide for the Care and Use of Laboratory Animals.
(§2) Then, the blood glucose concentrations were measured at 15, 30, 60, 90, and 120 minutes after the glucose injection (Glucometer and Reactive Strips Accu-chek Aviva, Roche) [Zhang, W. et al. Pharmacol Res 2011, 63: 284-93]. Free access to food and water was maintained throughout the study. Under fasting conditions, mice were deprived of food 4 hours before and during the experiment and the experimental protocol was followed as detailed above.

[1] = Maximum tolerated dose after single oral administration; details: mouse, in vivo, mice, observed up to 72 hours
Method: The maximum tolerated dose (MTD) was assessed in mice after single oral administration of high doses of Example 1 of 1 g/kg, 500 mg/kg, and 100 mg/kg, and the development of acute toxic symptoms (mortality, convulsions, tremors, muscle relaxation, sedation, etc.) and autonomic effects (diarrhea, salivation, lacrimation, vasodilation, piloerection, etc.) was observed during the first hour. The animals were then observed again for mortality at 3, 24, 48, and 72 hours. The mice were sacrificed if they lost more than 20% of their body weight or if there were other signs of significant toxicity. The MTD obtained for Example 1 in the above experimental conditions was 1 g/kg.

[2] = tested on: human platelet-rich plasma; test: Platelet aggregation inhibition after induction by ADP, arachidonic acid or collagen; format: cell-based; details: different concentrations
Method: Platelet aggregation inhibition was evaluated after the induction of aggregation by ADP, arachidonic acid or collagen in human platelet-rich plasma [Bertele, V. et al. Science 1983, 220(4596): 517-9; Knöfler, R. et al. Thromb Res 1995, 77(1): 69-78]. […] Platelet function was additionally tested under rheological conditions in human whole blood using a platelet function test device, PFA-100 [Frossard, M. et al. Circulation 2004, 110(11): 1392-7; Hennekens, C.H. et al. Circulation 2004, 110(12): 1706-8]. An increase (26%-30%) in aggregation time in the presence of collagen-epinephrine was noted, indicating platelet aggregation-inhibitory activity for compounds in examples 1 to 12 at 1 µM concentration under rheological conditions.

[3] = tested on: Syrian hamster embryo (SHE) cell, BALB/c 3T3, and CH310T1/2; test: Cell transformation assays (CTAs), carcinogenic assessment; format: cell-based; details: CTA assays, compared with structurally related compounds with carcinogenic potential
From the text: Carcinogenic potential may arise from a direct genotoxic effect or nongenotoxic effects. Epigenetic factors may contribute to tumor cell proliferation by routes other than a direct interaction with DNA. In that case, xenobiotics may act as cancer promoters in species other than those employed in preclinical drug development. Cell transformation assays (CTAs), including the main in vitro CTAs --the Syrian hamster embryo (SHE) cell, BALB/c 3T3, and CH310T1/2 assays-- are experimental tools reviewed by the OECD [Environment, Health and Safety Publications, Series on Testing and Assessment nº 31. Detailed review paper on cell transformation assays for detection of chemical carcinogens. November 28, 2006].

fasted mice = test: Blood glucose after i.p. glucose challenge, fasted mice; format: in vivo; details: oral
Method: as §1, §2

[4] = tested on: streptozotocin-induced diabetic mice; test: Blood glucose in mice with streptozotocin-induced diabetes; format: in vivo; details: for reduction in blood glucose concentrations when compared to basal values: range over the experimental time points
Method: as §1
In mice with streptozotocin-induced diabetes [Tokunaga, H. et al. Eur J Pharmacol 1983, 87(2-3): 237-43], diabetes was induced with a […] i.p. injection of streptozotocin (Sigma) 50 mg/kg body weight, freshly dissolved in NaCl 0.9% during 5 consecutive days. After 4 weeks, those mice (80%) with basal glucose concentrations under fasting (4 hours) conditions above 220 mg/dL were included in the assay. The test substance, positive and negative controls were administered by the p.o. route 30 minutes before measurement of the blood glucose concentrations at 0, 15, 30, 60, 90, and 120 minutes. Free access to water was maintained throughout the study.

Row | Structure (SMILES) | decrease in blood glucose concentrations (fed mice; fed, positive control, dose not given, 90 minutes after glucose challenge) [%] | decrease in blood glucose concentrations (fed mice; fed, positive control, dose not given, 120 minutes after glucose challenge) [%] | MTD at 72 h [1] [mg/kg] | decrease in blood glucose concentrations (fed mice; fed mice, oral, after i.p. glucose challenge (1 g/kg)) | reduction in blood glucose concentrations when compared to basal values (fed mice; fed, single oral dose 3 mg/kg, 90 minutes after glucose challenge) [%] | reduction in blood glucose concentrations when compared to basal values (fed mice; fed, single oral dose 3 mg/kg, 120 minutes after glucose challenge) [%] | reduction in blood glucose concentrations when compared to basal values (fed mice; fed, single oral dose 30 mg/kg, 90 minutes after glucose challenge) [%] | reduction in blood glucose concentrations when compared to basal values (fed mice; fed, single oral dose 30 mg/kg, 120 minutes after glucose challenge) [%] | reduction in blood glucose concentrations when compared to basal values (fed mice; fed, single oral dose 300 mg/kg, 90 minutes after glucose challenge) [%] | reduction in blood glucose concentrations when compared to basal values (fed mice; fed, single oral dose 300 mg/kg, 120 minutes after glucose challenge) [%] | inhibition of platelet aggregation [2] | carcinogenic potential [3] | decrease in blood glucose concentrations (fasted mice; fasted mice, after i.p. glucose challenge (1 g/kg)) | hypoglycemic activity (fasted mice; fasted, 0.3 mg/kg) | hypoglycemic effect ([4]; 0.1 mg/kg) | reduction in blood glucose concentrations when compared to basal values ([4]; 3 mg/kg oral) | reduction in blood glucose concentrations when compared to basal values ([4]; 30 mg/kg oral) | reduction in blood glucose concentrations when compared to basal values ([4]; 300 mg/kg oral) | decrease in blood glucose concentrations ([4]; mice with streptozotocin-induced diabetes, oral)
1 | CCCCNC(=O)NS(=O)(=O)c1ccc(C)cc1 [Tolbutamide, reference compound] | 7.76 | 3.22 |  |  |  |  |  |  |  |  |  |  |  |  |  |  |  |  | 
2 | CCc1ccc(Cc2ccc3c(c2)[C@@H]2O[C@H](CO)[C@@H](O)[C@H](O)[C@H]2OC3=O)cc1 [Example 1, (2R,3S,4S,4aR,10bS)-9-(4-Ethylbenzyl)-3,4-dihydroxy-2-(hydroxymethyl)-3,4,4a,10b-tetrahydropyrano[3,2-c][2]benzopyran-6(2H)-one] |  |  | 1000 | decrease in blood glucose concentrations | 12.01 | 9.63 | 6.04 | 4.71 | 2.52 | 10.2 | inhibition of platelet aggregation | no carcinogenic potential | decrease in blood glucose concentrations | hypoglycemic activity | No relevant hypoglycemic effect | 7-22% | 7-26% | 18-42% | decrease in blood glucose concentrations
